Measured values published in US12590099B2, “Inhibitors of histone deacetylase useful for the treatment or prevention of HIV infection” (Merck Sharp & Dohme LLC, priority 2018, dated 2026).
Where two headings read alike, the source gives them in different places.

Assays:
KARN cells (Jurkat 2C4) = test: cells; assay type: cell-based; settings: luciferase induction, 100% = 2 μM SAHA
Procedure, shortened: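 Jurkat 2C4 (KARN) cells dosed with test compounds up to 40 μM final, 0.4% DMSO, overnight at 5% CO2; luciferase read by Steady-Glo luminescence after 10 min at room temperature. DMSO set as 0% and 2 μM SAHA as 100% induction; 4-parameter fit of percent activation.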

Recombinant human HDAC1 = molecular target: T1, Recombinant human HDAC1 (Homo sapiens, UniProt Q13547); test: Human HDAC enzyme inhibitor Fluor-de-Lys assay, HDAC1; assay type: biochemical; settings: recombinant human HDAC1, Fluor-de-Lys assay
T1 construct: FLAG (C); made in house
T1 sequence (Q13547 whole entry): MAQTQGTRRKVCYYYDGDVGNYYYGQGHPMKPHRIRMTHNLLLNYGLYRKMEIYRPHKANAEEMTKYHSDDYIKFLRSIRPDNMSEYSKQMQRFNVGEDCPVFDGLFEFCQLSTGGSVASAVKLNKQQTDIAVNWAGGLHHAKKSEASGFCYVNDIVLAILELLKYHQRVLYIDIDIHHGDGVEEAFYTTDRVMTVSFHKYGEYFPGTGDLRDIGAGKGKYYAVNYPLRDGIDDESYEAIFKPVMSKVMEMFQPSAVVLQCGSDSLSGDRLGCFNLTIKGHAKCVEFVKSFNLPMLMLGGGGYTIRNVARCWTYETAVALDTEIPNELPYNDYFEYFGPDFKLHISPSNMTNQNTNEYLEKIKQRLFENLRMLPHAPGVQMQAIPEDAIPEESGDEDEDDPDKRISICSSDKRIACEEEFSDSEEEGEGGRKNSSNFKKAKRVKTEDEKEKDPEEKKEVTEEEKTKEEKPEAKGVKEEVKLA
Procedure, shortened: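 Fluor-de-Lys format at room temperature (23° C.): compounds titrated 10-point, 1:3, preincubated with HDAC before substrate addition; HDAC1 run at 0.3 nM enzyme with 20 μM BML-KI104. Developer with excess HDAC inhibitor ends the reaction, and trypsin-liberated AMC fluorescence is the read-out.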

[1] = Homo sapiens, Jurkat, read-out: Karn EC50 (nM) 0.1% NHS, 0.1% normal human serum
[2] = Homo sapiens, Jurkat, read-out: Karn EC50 (nM) 5% NHS, 5% normal human serum
[3] = read-out: Karn EC50 (nM) 0.1% NHS, 0.1% normal human serum
[4] = read-out: Karn EC50 (nM) 5% NHS, 5% normal human serum

Row | Structure (SMILES) | EC50 (KARN cells (Jurkat 2C4); [1]) [nM] | EC50 (KARN cells (Jurkat 2C4); [2]) [nM] | IC50 (Recombinant human HDAC1) [nM] | EC50 (KARN cells (Jurkat 2C4); [3]) [nM] | EC50 (KARN cells (Jurkat 2C4); [4]) [nM]
1 | CCC(=O)CCCCC[C@H](NC(=O)C1CC12CCOCC2)c1ncc(-c2cc3ccc(C)nc3cc2OC)[nH]1 (single isomer, unassigned) [Compound 407] | 336 | 977 | 0.9 |  | 
2 | CCC(=O)CCCCC[C@H](NC(=O)C1CC12CCOCC2)c1ncc(-c2cc3ccc(C)nc3cc2OC)o1 (single isomer, unassigned) [Compound 409] | 811 | 1860 | 10.5 |  | 
3 | CCC(=O)CCCCC[C@H](NC(=O)C1CC12CCOCC2)c1ncc(-c2cc3ccc(C)nc3cc2OC)o1 (single isomer, unassigned) [Compound 410] |  |  | 17.5 | 663 | 1390
4 | CCC(=O)CCCCC[C@H](NC(=O)C1CC12CCOCC2)c1ncc(-c2cc3ccc(C)nc3cc2OC)[nH]1 (single isomer, unassigned) [Compound 413] |  |  | 16.2 | 348 | 1270
5 | CCC(=O)CCCCCC(NC(=O)C1CCC2(CC1)OC(=O)c1ncccc12)c1nnc(-c2cc3ccccc3nc2OC)o1 (stereo not drawn) [Compound 365] | 1550 | 3830 | 61.2 |  | 
6 | CCC(=O)CCCCC[C@H](NC(=O)[C@H]1CC[C@@]2(CC1)OC(=O)c1cccnc12)c1nnc(-c2cc3ccccc3nc2OC)o1 [Compound 366] | 1500 | 5360 | 89.4 |  | 
7 | CCC(=O)CCCCC[C@H](NC(=O)[C@H]1CC[C@]2(CC1)OC(=O)c1ncccc12)c1nnc(-c2cc3ccccc3nc2OC)o1 [Compound 367] | 1330 | 4490 | 25.9 |  | 
8 | CCC(=O)CCCCC[C@H](NC(=O)[C@H]1CC[C@]2(CC1)OC(=O)c1cccnc12)c1nnc(-c2cc3ccccc3nc2OC)o1 [Compound 368] | 1570 | 5240 | 50.5 |  | 
9 | CCC(=O)CCCCC[C@H](NC(=O)C1=NOC2(CCN(C(C)C)CC2)C1)c1nnc(-c2cc3ccccc3nc2OC)o1 [Compound 369] | 804 | 1680 | 18.5 |  | 
10 | CCC(=O)CCCCC[C@H](NC(=O)C1=NOC2(CCN(C)CC2)C1)c1nnc(-c2cc3ccccc3nc2OC)o1 [Compound 370] | 752 | 1430 | 10.8 |  | 
11 | CCC(=O)CCCCC[C@H](NC(=O)C1=NOC2(CCN(S(C)(=O)=O)CC2)C1)c1nnc(-c2cc3ccccc3nc2OC)o1 [Compound 371] | 5000 | 6040 | 86.7 |  | 
12 | CCC(=O)CCCCC[C@H](NC(=O)[C@H]1CC[C@@]2(CC1)OC(=O)c1ccncc12)c1ncc(-c2ccccc2)[nH]1 [Compound 372] | 2650 | 5250 | 92.5 |  | 
13 | CCC(=O)CCCCC[C@H](NC(=O)[C@H]1CC[C@@]2(CC1)OC(=O)c1cnccc12)c1ncc(-c2ccccc2)[nH]1 [Compound 373] | 1650 | 5340 | 95.6 |  | 
14 | CCC(=O)CCCCC[C@H](NC(=O)[C@H]1CC[C@@]2(CC1)OC(=O)c1ncccc12)c1ncc(-c2ccccc2)[nH]1 [Compound 374] | 2580 | 5400 | 92.7 |  | 
15 | CCC(=O)CCCCC[C@H](NC(=O)[C@H]1CC[C@@]2(CC1)OC(=O)c1cccnc12)c1ncc(-c2ccccc2)[nH]1 [Compound 375] | 1450 | 9330 | 117 |  | 
16 | CCC(=O)CCCCC[C@H](NC(=O)[C@H]1CC[C@]2(CC1)OC(=O)c1ccncc12)c1ncc(-c2ccccc2)[nH]1 [Compound 376] | 1860 | 3680 | 49.9 |  | 
17 | CCC(=O)CCCCC[C@H](NC(=O)[C@H]1CC[C@]2(CC1)OC(=O)c1cccnc12)c1ncc(-c2ccccc2)[nH]1 [Compound 378] | 1310 | 2990 | 46 |  | 

Row | Structure (SMILES) | EC50 (KARN cells (Jurkat 2C4); [1]) [nM] | EC50 (KARN cells (Jurkat 2C4); [2]) [nM] | IC50 (Recombinant human HDAC1) [nM] | EC50 (KARN cells (Jurkat 2C4); [3]) [nM] | EC50 (KARN cells (Jurkat 2C4); [4]) [nM]
18 | CCC(=O)CCCCC[C@H](NC(=O)C1=NOC2(CCN(C(C)C)CC2)C1)c1ncc(-c2ccccc2)[nH]1 [Compound 379] | 472 | 771 | 21.9 |  | 
19 | CCC(=O)CCCCC[C@H](NC(=O)C1=NOC2(CCN(C(C)=O)CC2)C1)c1ncc(-c2ccccc2)[nH]1 [Compound 380] | 1920 | 2410 | 69.8 |  | 
20 | CCC(=O)CCCCC[C@H](NC(=O)C1=NOC2(CCN(C(=O)OC)CC2)C1)c1ncc(-c2ccccc2)[nH]1 [Compound 381] | 2740 | 6410 | 179 |  | 
21 | CCC(=O)CCCCC[C@H](NC(=O)C1=NOC2(CCN(C)CC2)C1)c1ncc(-c2ccccc2)[nH]1 [Compound 382] | 665 | 1070 | 32.9 |  | 
22 | CCC(=O)CCCCC[C@H](NC(=O)C1=NOC2(CCN(S(C)(=O)=O)CC2)C1)c1ncc(-c2ccccc2)[nH]1 [Compound 383] | 2620 | 3260 | 96.5 |  | 
23 | CCC(=O)CCCCC[C@H](NC(=O)CCN1C(=O)C(CC)=NC12CCOCC2)c1ncc(-c2ccccc2)[nH]1 [Compound 384] | 2220 | 2410 | 37.3 |  | 
24 | CCC(=O)CCCCC[C@H](NC(=O)C1=NOC2(CCN(C)CC2)C1)c1ncc(-c2cc3ccc(=O)n(C)c3cc2F)o1 [Compound 386] | 934 | 1060 | 7.82 |  | 
25 | CCC(=O)CCCCC[C@H](NC(=O)C1=NOC2(CCN(CC3CC3)CC2)C1)c1ncc(-c2cc3ccc(=O)n(C)c3cc2F)o1 [Compound 387] | 1540 | 1700 | 25.8 |  | 
26 | CCC(=O)CCCCC[C@H](NC(=O)[C@H]1CC12CCN(C)CC2)c1ncc(-c2cc3ocnc3cc2F)o1 [Compound 389] | 1120 | 1550 | 21.4 |  | 
27 | CCC(=O)CCCCC[C@H](NC(=O)C1=NOC2(CCN(C)CC2)C1)c1ncc(-c2ccc(Cl)cc2OC)o1 [Compound 390] |  |  | 18 | 674 | 1680
28 | CCC(=O)CCCCC[C@H](NC(=O)C1=NOC2(CCN(C)CC2)C1)c1ncc(-c2ccc(-c3ccccn3)cc2OC)o1 [Compound 391] | 460 | 541 | 9.57 |  | 
29 | CCC(=O)CCCCC[C@H](NC(=O)[C@H]1CC12CCN(CC1CC1)CC2)c1ncc(-c2ccc3nc(C)ccc3c2)[nH]1 [Compound 393] | 21 | 22 | 0.05 |  | 
30 | CCC(=O)CCCCC[C@H](NC(=O)C1=NOC2(CCN(C)CC2)C1)c1ncc(-c2ccc(-c3ccncc3)cc2OC)o1 [Compound 395] | 618 | 725 | 2.42 |  | 
31 | CCC(=O)CCCCC[C@H](NC(=O)C1=NOC2(CCN(C)CC2)C1)c1ncc(-c2cc3ccc(N(C)C)nc3cc2OC)o1 [Compound 397] | 279 | 327 | 1.36 |  | 
32 | CCC(=O)CCCCC[C@H](NCC1CC1)c1ncc(-c2cc3ccc(C)nc3cc2OC)[nH]1 [Compound 398, (S)-9-((cyclopropylmethyl)amino)-9-(5-(7-methoxy-2-methylquinolin-6-yl)-1H-imidazol-2-yl)nonan-3-one] | 5500 | 10200 | 186 |  | 
33 | CCC(=O)CCCCC[C@H](NC(=O)[C@H]1CC12CCN(CC1CC1)CC2)c1ncc(-c2cc3ccc(=O)n(C)c3cc2F)o1 [Compound 400] | 577 | 557 | 6.41 |  | 
